What is called IC50 is the concentration that inhibits the measured activity by half.

The nature of series [1]: Cytotoxicity against human OE21 cells assessed as cell survival after 24 hrs by MTT assay. The format is functional, cell-based. The following applies: OE21, 24 h. On the technique in general: Tetrazolium dyes change colour on reduction, which living cells bring about.
Series [2] in a line: Cytotoxicity against human HET-1A cells assessed as cell survival after 24 hrs by MTT assay. The format is cell-based.
Series [3] in a line: Drug uptake in human OE21 endoplasmic reticulum at 9 uM after 5 mins by confocal microscopy. It is filed as ADME.
Series [4] is described as follows: Drug uptake in human OE21 endoplasmic reticulum at 27 uM after 20 mins by confocal microscopy. The format is ADME.
A short description of series [5]: Ratio of IC50 for cytotoxicity against human HET-1A cells to IC50 for cytotoxicity against human OE21 cells. The format is toxicity, cell-based. The following applies: HET-1A cells and OE21 cells, read-out: Ratio IC50.
Series [6] is described as follows: Drug uptake in human OE21 endoplasmic reticulum assessed as fluorescence intensity at 18 uM after 20 mins to 2 hrs by confocal microscopy. It is filed as ADME.
The nature of series [7]: Drug uptake in human HET-1A endoplasmic reticulum after 20 mins to 2 hrs by confocal microscopy. The format is ADME.
Series [8] can be described thus: Solubility of the compound in phosphate buffer solution at pH7.4. The following applies: pH 7.4. The format is physicochemical.
Series [9] can be described thus: Drug uptake in human HET-1A endoplasmic reticulum after 5 mins by confocal microscopy. It is filed as ADME.

For `Brc1ccc(-c2nc3c4cccnc4c4ncccc4c3[nH]2)cc1`, the results for the IC50 in series [1] and in series [2] were 770 nM and 3150 nM, respectively. Further, the Drug uptake entry in series [3], in series [4], in series [6] and in series [7] was “Active” throughout. Besides, in series [5], the selectivity ratio turned out to be 4. In addition, the solubility result in [8] is reported as “soluble”.
Turning to `C[Si](C)(C)C#Cc1ccc(-c2nc3c4cccnc4c4ncccc4c3[nH]2)cc1`, the Drug uptake result in series [9], in series [3], in series [4], in series [6] and in series [7] was “Active” each time. The figures for the IC50 in series [1] and in series [2] were 440 nM and 3020 nM, respectively. For the same molecule, in series [5], the selectivity ratio came to 7. In addition, in series [8], the solubility entry is given as “soluble”.

For the origin of these results see ChEMBL document CHEMBL1806426, “Simple but powerful: phenanthroline-based small molecules for cellular imaging and cancer screening” (Bioorg Med Chem Lett, 2011).
